From patent US8841449B2, “Compounds useful as inhibitors of ATR kinase” (Vertex Pharmaceuticals Incorporated, priority 2011, dated 2014)

What was measured:
[1] = Pharmacokinetics (clearance and volume of distribution); assay type: in vivo; conditions: for clearance / Vd: in vivo, noncompartmental, intravenous (IV) dosing, species not given; for Vd: read-out: Vss (steady state volume of distribution)
Text: Noncompartmental pharmacokinetic parameters can be analyzed using Watson Bioanalytical LIMS (Version 7.4; Thermo Fisher Scientific) from either the blood or plasma samples. The following parameters can be estimated following intravenous (IV) dosing: terminal elimination half-life (T1/2=ln(2)/λz, where λz is the first order rate constant associated with the terminal (log-linear) portion of the curve); the area under the curve (AUClast=area under the curve from the time of dosing to the last measurable concentration); the area under the curve extrapolated to infinity (AUC0-∞=AUClast+Clast/λz). The clearance (Cl; Cl=DoseIV/AUC0-∞); the area under the first moment curve (AUMClast=area under the concentration times time versus time curve from the time of dosing to the last measurable concentration); the area under the first moment curve extrapolated to infinity (AUMC0-∞=AUMClast+Clast×t/λz+Clast/λz^2); the mean residence time (MRT=AUMC0-∞/AUC0-∞); and the steady state volume of distribution (Vdss=MRT×Cl).
Clearance and volume of distribution can also be obtained using methods known to one of skill in the art (see e.g., Handbook of Essential Pharmacokinetics, Pharmacodynamics and Drug Metabolism for Industrial Scientists, Younggil Kwon, pp 18-28 (Noncompartmental Approach)).

[2] = target: T1, ATR kinase (full-length ATR) (Homo sapiens, UniProt Q13535); test: ATR Inhibition Assay (radioactive-phosphate incorporation); assay type: biochemical; conditions: Ki(app); 10 μM ATP, 800 μM target peptide, 5 nM full-length ATR, 25° C.
T1 construct: Assays were carried out at 25° C. in the presence of 5 nM full-length ATR
T1 sequence (Q13535 whole entry): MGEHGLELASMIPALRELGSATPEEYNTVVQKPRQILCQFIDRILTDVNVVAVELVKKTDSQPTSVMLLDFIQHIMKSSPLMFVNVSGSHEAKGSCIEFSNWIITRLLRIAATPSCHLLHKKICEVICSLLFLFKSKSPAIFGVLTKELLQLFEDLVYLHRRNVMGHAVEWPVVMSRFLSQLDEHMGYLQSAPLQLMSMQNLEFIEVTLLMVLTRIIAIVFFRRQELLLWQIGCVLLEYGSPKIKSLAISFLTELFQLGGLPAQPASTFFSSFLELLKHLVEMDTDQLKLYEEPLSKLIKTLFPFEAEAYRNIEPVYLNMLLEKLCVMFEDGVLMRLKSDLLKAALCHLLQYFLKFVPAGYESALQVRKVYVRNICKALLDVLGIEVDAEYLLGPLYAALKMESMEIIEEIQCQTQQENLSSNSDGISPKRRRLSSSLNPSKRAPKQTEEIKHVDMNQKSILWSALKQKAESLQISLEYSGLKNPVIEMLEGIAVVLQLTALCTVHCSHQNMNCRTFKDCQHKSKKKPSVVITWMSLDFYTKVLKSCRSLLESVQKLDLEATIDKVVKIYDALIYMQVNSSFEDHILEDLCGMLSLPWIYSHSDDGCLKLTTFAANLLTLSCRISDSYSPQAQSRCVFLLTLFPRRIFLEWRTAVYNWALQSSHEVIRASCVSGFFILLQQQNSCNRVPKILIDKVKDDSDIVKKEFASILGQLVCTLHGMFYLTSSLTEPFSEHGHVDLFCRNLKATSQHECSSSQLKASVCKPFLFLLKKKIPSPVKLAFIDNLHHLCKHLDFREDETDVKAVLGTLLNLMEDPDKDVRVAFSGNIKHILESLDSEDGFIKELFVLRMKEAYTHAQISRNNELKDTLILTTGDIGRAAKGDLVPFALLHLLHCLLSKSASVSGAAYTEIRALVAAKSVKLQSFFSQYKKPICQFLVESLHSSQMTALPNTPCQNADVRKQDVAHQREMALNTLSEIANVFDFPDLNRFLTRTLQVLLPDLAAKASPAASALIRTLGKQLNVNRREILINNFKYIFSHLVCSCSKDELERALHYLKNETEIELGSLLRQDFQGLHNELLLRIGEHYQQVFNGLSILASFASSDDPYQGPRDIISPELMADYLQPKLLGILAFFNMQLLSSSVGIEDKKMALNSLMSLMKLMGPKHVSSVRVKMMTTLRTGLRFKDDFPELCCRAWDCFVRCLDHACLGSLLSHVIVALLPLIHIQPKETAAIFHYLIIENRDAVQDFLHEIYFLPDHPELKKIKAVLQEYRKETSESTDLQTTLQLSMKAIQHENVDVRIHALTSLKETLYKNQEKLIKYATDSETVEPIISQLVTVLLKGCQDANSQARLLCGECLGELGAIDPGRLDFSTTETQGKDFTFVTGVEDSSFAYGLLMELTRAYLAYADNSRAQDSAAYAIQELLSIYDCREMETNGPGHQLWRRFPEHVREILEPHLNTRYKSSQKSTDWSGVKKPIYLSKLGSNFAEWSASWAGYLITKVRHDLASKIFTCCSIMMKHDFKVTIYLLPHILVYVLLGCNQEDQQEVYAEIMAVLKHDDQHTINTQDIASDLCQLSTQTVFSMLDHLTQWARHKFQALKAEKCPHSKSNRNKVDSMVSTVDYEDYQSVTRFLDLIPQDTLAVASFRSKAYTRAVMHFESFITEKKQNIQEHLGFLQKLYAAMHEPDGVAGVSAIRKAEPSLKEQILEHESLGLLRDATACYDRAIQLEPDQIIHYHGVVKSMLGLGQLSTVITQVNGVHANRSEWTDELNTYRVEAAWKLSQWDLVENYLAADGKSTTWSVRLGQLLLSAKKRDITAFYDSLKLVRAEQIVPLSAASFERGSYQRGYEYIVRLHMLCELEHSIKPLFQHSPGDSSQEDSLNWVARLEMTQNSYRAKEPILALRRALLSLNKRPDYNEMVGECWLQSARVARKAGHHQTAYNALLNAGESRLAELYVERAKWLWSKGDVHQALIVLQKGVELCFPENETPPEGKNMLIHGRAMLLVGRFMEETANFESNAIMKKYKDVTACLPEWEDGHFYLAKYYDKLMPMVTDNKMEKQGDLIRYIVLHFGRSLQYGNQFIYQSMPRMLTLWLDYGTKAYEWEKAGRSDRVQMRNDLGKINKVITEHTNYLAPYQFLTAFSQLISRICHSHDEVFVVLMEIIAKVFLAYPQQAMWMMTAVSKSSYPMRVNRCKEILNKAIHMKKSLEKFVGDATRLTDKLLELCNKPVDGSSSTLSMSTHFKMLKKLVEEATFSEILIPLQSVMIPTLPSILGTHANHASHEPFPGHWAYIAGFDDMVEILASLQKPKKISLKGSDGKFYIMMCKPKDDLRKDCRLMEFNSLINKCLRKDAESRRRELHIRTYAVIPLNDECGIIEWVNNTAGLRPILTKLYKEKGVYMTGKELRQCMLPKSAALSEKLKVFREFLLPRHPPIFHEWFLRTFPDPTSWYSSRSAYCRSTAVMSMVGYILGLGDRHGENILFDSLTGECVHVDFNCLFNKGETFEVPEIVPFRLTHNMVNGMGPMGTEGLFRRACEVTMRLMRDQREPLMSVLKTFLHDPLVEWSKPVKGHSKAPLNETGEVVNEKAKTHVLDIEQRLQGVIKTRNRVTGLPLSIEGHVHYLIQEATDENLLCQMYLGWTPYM
Method: Compounds were screened for their ability to inhibit ATR kinase using a radioactive-phosphate incorporation assay. Assays were carried out in a mixture of 50 mM Tris/HCl (pH 7.5), 10 mM MgCl2 and 1 mM DTT. Final substrate concentrations were 10 μM [γ-33P]ATP (3mCi 33P ATP/mmol ATP, Perkin Elmer) and 800 μM target peptide (ASELPASQPQPFSAKKK).
Assays were carried out at 25° C. in the presence of 5 nM full-length ATR. An assay stock buffer solution was prepared containing all of the reagents listed above, with the exception of ATP and the test compound of interest. 13.5 μL of the stock solution was placed in a 96 well plate followed by addition of 2 μL of DMSO stock containing serial dilutions of the test compound (typically starting from a final concentration of 15 μM with 3-fold serial dilutions) in duplicate (final DMSO concentration 7%). The plate was pre-incubated for 10 minutes at 25° C. and the reaction initiated by addition of 15 μL [γ-33P]ATP (final concentration 10 μM).
The reaction was stopped after […] by the addition of 30 μL 0.1M phosphoric acid containing 2 mM ATP. A multiscreen phosphocellulose filter 96-well plate (Millipore, Cat no. MAPHN0B50) was pretreated with 100 μL 0.2M phosphoric acid prior to the addition of 45 μL of the stopped assay mixture. The plate was washed with 5×200 μL 0.2M phosphoric acid. After drying, 100 μL Optiphase ‘SuperMix’ liquid scintillation cocktail (Perkin Elmer) was added to the well prior to scintillation counting (1450 Microbeta Liquid Scintillation Counter, Wallac).
After removing mean background values for all of the data points, Ki(app) data were calculated from non-linear regression analysis of the initial rate data using the Prism software package (GraphPad Prism version 3.0cx for Macintosh, GraphPad Software, San Diego Calif., USA).

Ki [2] | SMILES | further results
 | Cc1ccsc1-c1nnc(-c2nc(-c3ccc(S(=O)(=O)C4CCNCC4)cc3)cnc2N)o1 [Compound A, reference compound] | clearance [1]: 34.3 mL/min/kg; Vd [1]: 12.5 L/kg
≤ 5 nM | Nc1ncc(-c2ccc(S(=O)(=O)C3CCCNC3)cc2)nc1-c1cc(-c2ccccc2)no1 (stereo not shown) [Compound I-1, 3-(3-phenylisoxazol-5-yl)-5-(4-(piperidin-3-ylsulfonyl)phenyl)pyrazin-2-amine] | clearance [1]: 0.9 mL/min/kg; Vd [1]: 0.9 L/kg
≤ 5 nM | Cc1ccsc1-c1cc(-c2nc(-c3ccc(S(=O)(=O)C4CCCNC4)cc3)cnc2N)on1 (stereo not shown) [Compound I-2, 3-(3-(3-methylthiophen-2-yl)isoxazol-5-yl)-5-(4-(piperidin-3-ylsulfonyl)phenyl)pyrazin-2-amine] | 
≤ 5 nM | Nc1ncc(-c2ccc(S(=O)(=O)C3CCCNC3)cc2)nc1-c1cc(-c2cccs2)no1 (stereo not shown) [Compound I-3, 5-(4-(piperidin-3-ylsulfonyl)phenyl)-3-(3-(thiophen-2-yl)isoxazol-5-yl)pyrazin-2-amine] | clearance [1]: 3.3 mL/min/kg; Vd [1]: 1 L/kg
≤ 5 nM | Nc1ncc(-c2ccc(S(=O)(=O)C3CCCNC3)cc2)nc1-c1cc(-c2ccc(O)cc2)no1 (stereo not shown) [Compound I-4, 4-(5-(3-amino-6-(4-(piperidin-3-ylsulfonyl)phenyl)pyrazin-2-yl)isoxazol-3-yl)phenol] | 
≤ 5 nM | CNCc1ccc(-c2cc(-c3nc(-c4ccc(S(=O)(=O)C5CCCNC5)cc4)cnc3N)on2)cc1 (stereo not shown) [Compound I-5, 3-(3-(4-((methylamino)methyl)phenyl)isoxazol-5-yl)-5-(4-(piperidin-3-ylsulfonyl)phenyl)pyrazin-2-amine] | 
≤ 5 nM | Nc1ncc(-c2ccc(S(=O)(=O)C3CCCNC3)cc2)nc1-c1cc(-c2ccc(CNC3CCOCC3)cc2)no1 (stereo not shown) [Compound I-6, 5-(4-(piperidin-3-ylsulfonyl)phenyl)-3-(3-(4-(((tetrahydro-2H-pyran-4-yl)amino)methyl)phenyl)isoxazol-5-yl)pyrazin-2-amine] | 
≤ 5 nM | Nc1ncc(-c2ccc(S(=O)(=O)[C@@H]3CCCNC3)cc2)nc1-c1cc(-c2ccc([C@@H]3COCCN3)cc2)no1 [Compound I-7, 3-(3-(4-((R)-morpholin-3-yl)phenyl)isoxazol-5-yl)-5-(4-((R)-piperidin-3-ylsulfonyl)phenyl)pyrazin-2-amine] | 
≤ 5 nM | Nc1ncc(-c2ccc(S(=O)(=O)C3CCCNC3)cc2)nc1-c1cc(-c2ccsc2)no1 (stereo not shown) [Compound I-8, 5-(4-(piperidin-3-ylsulfonyl)phenyl)-3-(3-(thiophen-3-yl)isoxazol-5-yl)pyrazin-2-amine] | 
≤ 5 nM | Nc1ncc(-c2ccc(S(=O)(=O)C3CCCNC3)cc2)nc1-c1cc(-c2nccs2)no1 (stereo not shown) [Compound I-9, 5-(4-(piperidin-3-ylsulfonyl)phenyl)-3-(3-(thiazol-2-yl)isoxazol-5-yl)pyrazin-2-amine] | 
≤ 5 nM | Cc1ccsc1-c1nnc(-c2nc(-c3ccc(S(=O)(=O)C4CCCNC4)cc3)cnc2N)o1 (stereo not shown) [Compound I-10, 3-(5-(3-methylthiophen-2-yl)-1,3,4-oxadiazol-2-yl)-5-(4-(piperidin-3-ylsulfonyl)phenyl)pyrazin-2-amine] | PK properties (clearance and volume of distribution) compared with similar compounds ([1]; compared to a similar 4-piperidine compound (Compound A)): much lower clearance and volume of distribution; clearance [1]: 9.3 mL/min/kg; Vd [1]: 3 L/kg
≤ 5 nM | Nc1ncc(-c2ccc(S(=O)(=O)C3CCCNC3)cc2)nc1-c1nnc(-c2sccc2F)o1 (stereo not shown) [Compound I-11, 3-(5-(3-fluorothiophen-2-yl)-1,3,4-oxadiazol-2-yl)-5-(4-(piperidin-3-ylsulfonyl)phenyl)pyrazin-2-amine] | 
≤ 5 nM | Nc1ncc(-c2ccc(S(=O)(=O)C3CCCNC3)cc2)nc1-c1nnc(-c2cccs2)o1 (stereo not shown) [Compound I-12, 5-(4-(piperidin-3-ylsulfonyl)phenyl)-3-(5-(thiophen-2-yl)-1,3,4-oxadiazol-2-yl)pyrazin-2-amine] | 
≤ 5 nM | COc1ccsc1-c1nnc(-c2nc(-c3ccc(S(=O)(=O)C4CCCNC4)cc3)cnc2N)o1 (stereo not shown) [Compound I-13, 3-(5-(3-methoxythiophen-2-yl)-1,3,4-oxadiazol-2-yl)-5-(4-(piperidin-3-ylsulfonyl)phenyl)pyrazin-2-amine] | 
≤ 5 nM | COc1ccccc1-c1nnc(-c2nc(-c3ccc(S(=O)(=O)C4CCCNC4)cc3)cnc2N)o1 (stereo not shown) [Compound I-14, 3-(5-(2-methoxyphenyl)-1,3,4-oxadiazol-2-yl)-5-(4-(piperidin-3-ylsulfonyl)phenyl)pyrazin-2-amine] | clearance [1]: 16 mL/min/kg; Vd [1]: 2 L/kg
≤ 5 nM | Cc1ccsc1-c1nnc(-c2nc(-c3ccc(S(=O)(=O)[C@H]4CCCNC4)cc3)cnc2N)o1 [Compound I-15, (S)-3-(5-(3-methylthiophen-2-yl)-1,3,4-oxadiazol-2-yl)-5-(4-(piperidin-3-ylsulfonyl)phenyl)pyrazin-2-amine] | 
≤ 5 nM | Cc1ccsc1-c1nnc(-c2nc(-c3ccc(S(=O)(=O)[C@@H]4CCCNC4)cc3)cnc2N)o1 [Compound I-16, (R)-3-(5-(3-methylthiophen-2-yl)-1,3,4-oxadiazol-2-yl)-5-(4-(piperidin-3-ylsulfonyl)phenyl)pyrazin-2-amine] | 
≤ 5 nM | Nc1ncc(-c2ccc(S(=O)(=O)C3CCCNC3)cc2)nc1-c1nnc(-c2ccc(C3COCCN3)cc2)o1 (stereo not shown) [Compound I-17, 3-(5-(4-(morpholin-3-yl)phenyl)-1,3,4-oxadiazol-2-yl)-5-(4-(piperidin-3-ylsulfonyl)phenyl)pyrazin-2-amine] | 
≤ 5 nM | Nc1ncc(-c2ccc(S(=O)(=O)C3CCCNC3)cc2)nc1-c1nnc(-c2ccccc2)s1 (stereo not shown) [Compound I-18, 3-(5-phenyl-1,3,4-thiadiazol-2-yl)-5-(4-(piperidin-3-ylsulfonyl)phenyl)pyrazin-2-amine] | 
≤ 5 nM | Nc1ncc(-c2ccc(S(=O)(=O)C3CCCNC3)cc2)nc1-c1nnc(-c2ccccc2)o1 (stereo not shown) [Compound I-19] | 
5 to 10 nM | Nc1ncc(-c2ccc(S(=O)(=O)C3CCCNC3)cc2)nc1-c1cc(-c2ccc(OCCO)cc2)no1 (stereo not shown) [Compound I-20] | 
5 to 10 nM | Nc1ncc(-c2ccc(S(=O)(=O)C3CCCNC3)cc2)nc1-c1cc(-c2ccc(CO)cc2)no1 (stereo not shown) [Compound I-21] | 
10 to 25 nM | Nc1ncc(-c2ccc(S(=O)(=O)C3CCCNC3)cc2)nc1-c1cc(-c2ccccc2F)no1 (stereo not shown) [Compound I-22] | 
5 to 10 nM | COc1ccccc1-c1cc(-c2nc(-c3ccc(S(=O)(=O)C4CCCNC4)cc3)cnc2N)on1 (stereo not shown) [Compound I-23] | 
10 to 25 nM | Cc1ccccc1-c1cc(-c2nc(-c3ccc(S(=O)(=O)C4CCCNC4)cc3)cnc2N)on1 (stereo not shown) [Compound I-24] | 
10 to 25 nM | Nc1ncc(-c2ccc(S(=O)(=O)C3CCCNC3)cc2)nc1-c1cc(-c2ccccc2Cl)no1 (stereo not shown) [Compound I-25] | 
≤ 5 nM | Nc1ncc(-c2ccc(S(=O)(=O)C3CCCNC3)cc2)nc1-c1cc(-c2ccccc2O)no1 (stereo not shown) [Compound I-26] | 
